US20230416262A1, “TRPML MODULATORS” (Casma Therapeutics, Inc., priority 2020, published 2023)

Key:
[1] = system: THP-1 cells; test: Lamp1 lysosomal exocytosis assay; assay type: cell-based; conditions: Homo sapiens, 55 min, 55 min incubation, top dose 20 μM
Outline: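 THP-1 cells (1e5/well) exposed to a 7-point 3-fold compound series, top final 20 μM, for 55 min at 37°C. Surface Lamp1 then stained with Lamp1-PE on ice in buffer containing 80 μM Dynasore, and read by flow cytometry as PE geometric mean on live, sytox-negative singlets.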

[2] = system: TFEB; test: TFEB nuclear translocation assay; assay type: cell-based; conditions: Homo sapiens; HeLa wt or HeLa TRPML1 KO cells, treated for 2 hrs; ratio of nuclear to ring-region TFEB intensity
Outline: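 HeLa wild-type or TRPML1 KO cells treated 2 h with compound at 37 °C, PFA-fixed, immunostained for TFEB (Alexa 488) with Hoechst nuclei. Imaged at ×20, four fields/well. Value is ratio of nuclear to perinuclear-ring TFEB intensity, with nuclei counts.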

| SMILES | EC50 [1] [nM] | EC50 [2] [nM] |
| --- | --- | --- |
| O=S(=O)(c1ccc(C(F)F)cc1)N1CC2(CCN(CC(F)(F)F)CC2)c2ccccc21 [Compound I-86, 1-[4-(difluoromethyl)benzenesulfonyl]-1′-(2,2,2-trifluoroethyl)-1,2-dihydrospiro[indole-3,4′-piperidine]] | ≥ 5010 | ≤ 2000 |
| CN(C)S(=O)(=O)c1ccc(S(=O)(=O)N2CC3(CCN(CC(F)(F)F)CC3)c3ccccc32)cc1 [Compound I-87, N,N-dimethyl-4-{[1′-(2,2,2-trifluoroethyl)-1,2-dihydrospiro[indole-3,4′-piperidin]-1-yl]sulfonyl}benzene-1-sulfonamide] | 510 to 1000 | ≤ 2000 |
| O=C(OCc1ccccc1)N1CCC2(C1)CN(S(=O)(=O)c1ccc(C(F)F)cc1)c1ccccc12 (stereo not drawn) [Compound I-91, benzyl 1-[4-(difluoromethyl)benzenesulfonyl]-1,2-dihydrospiro[indole-3,3′-pyrrolidine]-1′-carboxylate] | ≥ 5010 | 2010 to 8000 |
| O=S(=O)(c1ccc(C(F)F)cc1)N1CC2(CCN(CC(F)(F)F)C2)c2ccccc21 (stereo not drawn) [Compound I-92, 1-[4-(difluoromethyl)benzenesulfonyl]-1′-(2,2,2-trifluoroethyl)-1,2-dihydrospiro[indole-3,3′-pyrrolidine]] | ≥ 5010 | 2010 to 8000 |
| CC1(C)COc2ccc(S(=O)(=O)N3CC4(CCCCC4)c4ccccc43)cc21 [Compound I-94, 1′-[(3,3-dimethyl-2,3-dihydro-1-benzofuran-5-yl)sulfonyl]-1′,2′-dihydrospiro[cyclohexane-1,3′-indole]] | ≥ 5010 | ≤ 2000 |
| CN(C)S(=O)(=O)c1ccc(S(=O)(=O)N2CC3(CCCC3)c3c(F)cccc32)cc1 [Compound I-95, 4-({4′-fluoro-1′,2′-dihydrospiro[cyclopentane-1,3′-indol]-1′-yl}sulfonyl)-N,N-dimethylbenzene-1-sulfonamide] | ≤ 500 | ≤ 2000 |
| CN(C)S(=O)(=O)c1ccc(S(=O)(=O)N2CC3(CCN(CC(C)(F)F)CC3)c3ccccc32)cc1 [Compound I-97, 4-{[1′-(2,2-difluoropropyl)-1,2-dihydrospiro[indole-3,4′-piperidin]-1-yl]sulfonyl}-N,N-dimethylbenzene-1-sulfonamide] | 510 to 1000 | ≤ 2000 |
| CN(C)S(=O)(=O)c1ccc(S(=O)(=O)N2CC3(CCN(CC4CCOCC4)CC3)c3ccccc32)cc1 [Compound I-98, N,N-dimethyl-4-({1′-[(oxan-4-yl)methyl]-1,2-dihydrospiro[indole-3,4′-piperidin]-1-yl}sulfonyl)benzene-1-sulfonamide] | 1010 to 5000 | ≤ 2000 |
| CN(C)S(=O)(=O)c1ccc(S(=O)(=O)N2CC3(CCCCC3)c3ccccc32)cc1 [Compound I-99, 4-({1′,2′-dihydrospiro[cyclohexane-1,3′-indol]-1′-yl}sulfonyl)-N,N-dimethylbenzene-1-sulfonamide] | ≤ 500 | ≤ 2000 |
| CC1(C)COc2ccc(S(=O)(=O)N3CC4(CCCC4)c4c(F)cccc43)cc21 [Compound I-100, 1′-[(3,3-dimethyl-2,3-dihydro-1-benzofuran-5-yl)sulfonyl]-4′-fluoro-1′,2′-dihydrospiro[cyclopentane-1,3′-indole]] | ≥ 5010 | ≤ 2000 |
| CN(C)S(=O)(=O)c1ccc(S(=O)(=O)N2CC3(CN(CC4CCOCC4)C3)c3ccccc32)cc1 [Compound I-101, N,N-dimethyl-4-({1-[(oxan-4-yl)methyl]-1′,2′-dihydrospiro[azetidine-3,3′-indol]-1′-yl}sulfonyl)benzene-1-sulfonamide] | ≥ 5010 | 2010 to 8000 |
| CN(C)S(=O)(=O)c1ccc(S(=O)(=O)N2CC3(CCN(C4CCOC4)CC3)c3ccccc32)cc1 (stereo not drawn) [Compound I-103, N,N-dimethyl-4-{[1′-(oxolan-3-yl)-1,2-dihydrospiro[indole-3,4′-piperidin]-1-yl]sulfonyl}benzene-1-sulfonamide] | ≥ 5010 | 2010 to 8000 |
| CN(C)S(=O)(=O)c1ccc(S(=O)(=O)N2CC3(CCN(C(=O)OCc4ccccc4)CC3)c3ccccc32)cc1 [Compound I-104] | ≤ 500 | ≤ 2000 |
| CN(C)S(=O)(=O)c1ccc(S(=O)(=O)N2CC3(CN(C(=O)OCc4ccccc4)C3)c3ccccc32)cc1 [Compound I-105, benzyl 1′-[4-(dimethylsulfamoyl)benzenesulfonyl]-1′,2′-dihydrospiro[azetidine-3,3′-indole]-1-carboxylate] | ≥ 5010 | ≤ 2000 |
| CN(C)S(=O)(=O)c1ccc(S(=O)(=O)N2CC3(CCCC3)Oc3ccccc32)cc1 [Compound I-116, 4-((3,4-dihydrospiro[1,4-benzoxazine-2,1′-cyclopentan]-4-yl}sulfonyl)-N,N-dimethylbenzene-1-sulfonamide] | ≥ 5010 | ≤ 2000 |
| CN(C)S(=O)(=O)c1ccc(S(=O)(=O)N2CC3(CCN(C(=O)C(C)(C)C)CC3)c3ccccc32)cc1 [Compound I-118, 4-{[1′-(2,2-dimethylpropanoyl)-1,2-dihydrospiro[indole-3,4′-piperidin]-1-yl]sulfonyl}-N,N-dimethylbenzene-1-sulfonamide] | 1010 to 5000 | ≤ 2000 |
| COC1CCC2(CC1)CN(S(=O)(=O)c1ccc(S(=O)(=O)N(C)C)cc1)c1ccccc12 (stereo not drawn) [Compound I-119, 4-({4-methoxy-1′,2′-dihydrospiro[cyclohexane-1,3′-indol]-1′-yl}sulfonyl)-N,N-dimethylbenzene-1-sulfonamide] | 1010 to 5000 | ≤ 2000 |
| CC(F)(F)CN1CCC2(CC1)CN(S(=O)(=O)c1ccc(C(F)F)cc1)c1ccccc12 [Compound I-122, 1-((4-(difluoromethyl)phenyl)sulfonyl)-1′-(2,2-difluoropropyl)spiro[indoline-3,4′-piperidine]] | ≥ 5010 | ≤ 2000 |
| CN(C)S(=O)(=O)c1ccc(S(=O)(=O)N2CC3(CCCC3)n3nccc32)cc1 [Compound I-124, 4-({1′,2′-dihydrospiro[cyclopentane-1,3′-pyrazolo[1,5-a]imidazol]-1′-yl}sulfonyl)-N,N-dimethylbenzene-1-sulfonamide] | ≥ 5010 | ≥ 10000 |
| CN(C)S(=O)(=O)c1ccc(S(=O)(=O)N2CCC3(CCN(CC(F)(F)F)CC3)c3ccccc32)cc1 [Compound I-126, N,N-dimethyl-4-((1-(2,2,2-trifluoroethyl)-2′,3′-dihydro-1′H-spiro[piperidine-4,4′-quinolin]-1′-yl)sulfonyl)benzenesulfonamide] | ≥ 5010 | ≤ 2000 |
| CN(C)S(=O)(=O)c1ccc(S(=O)(=O)N2CC3(CCCC3)c3ccncc32)cc1 [Compound I-127, 4-({1′,2′-dihydrospiro[cyclopentane-1,3′-pyrrolo[2,3-c]pyridin]-1′-yl}sulfonyl)-N,N-dimethylbenzene-1-sulfonamide] | 1010 to 5000 | 2010 to 8000 |
| CN(C)S(=N)(=O)c1ccc(S(=O)(=O)N2CC3(CCCCC3)c3ccccc32)cc1 (stereo not drawn) [Compound I-129, N,N-dimethyl-4-(spiro[cyclohexane-1,3′-indolin]-1′-ylsulfonyl)benzenesulfonimidamide] | 510 to 1000 | ≤ 2000 |
| O=C(OCc1ccccc1)N1CCC2(CC1)CN(S(=O)(=O)c1ccc(C(F)F)cc1)c1cccc(F)c12 [Compound I-130, benzyl 1-[4-(difluoromethyl)benzenesulfonyl]-4-fluoro-1,2-dihydrospiro[indole-3,4′-piperidine]-1′-carboxylate] | ≤ 500 | ≤ 2000 |
| O=C(OCc1ccccc1)N1CCC2(CC1)CN(S(=O)(=O)c1ccc(C(F)F)cc1)c1cc(F)ccc12 [Compound I-131, benzyl 1-((4-(difluoromethyl)phenyl)sulfonyl)-6-fluorospiro[indoline-3,4′-piperidine]-1′-carboxylate] | ≥ 5010 | ≤ 2000 |
| O=C(OCc1ccccc1)N1CCC2(CC1)CN(S(=O)(=O)c1ccc(C(F)F)cc1)c1ccc(F)cc12 [Compound I-132] | ≥ 5010 | ≤ 2000 |
| O=C(OCc1ccccc1)N1CCC2(CC1)CN(S(=O)(=O)c1ccc(C(F)F)cc1)c1c(F)cccc12 [Compound I-133, benzyl 1-((4-(difluoromethyl)phenyl)sulfonyl)-7-fluorospiro[indoline-3,4′-piperidine]-1′-carboxylate] | ≥ 5010 | ≤ 2000 |
| O=C(OCc1ccccc1)N1CCC2(CC1)CN(S(=O)(=O)c1ccc(C(F)F)cc1)c1cccnc12 [Compound I-134, benzyl 1′-[4-(difluoromethyl)benzenesulfonyl]-1′,2′-dihydrospiro[piperidine-4,3′-pyrrolo[3,2-b]pyridine]-1-carboxylate] | ≤ 500 | ≤ 2000 |
| CCOC[C@]1(C)CC[C@]2(CC1)CN(S(=O)(=O)c1ccc(C(F)F)cc1)c1ccccc12 [Compound I-137, (1r,4r)-1′-[4-(difluoromethyl)benzenesulfonyl]-4-(ethoxymethyl)-4-methyl-1′,2′-dihydrospiro[cyclohexane-1,3′-indole]] | ≤ 500 | ≤ 2000 |
| O=C(OCc1ccccc1)N1CCC2(CC1)CN(S(=O)(=O)c1ccc(C(F)(F)C3CC3)cc1)c1ccccc12 [Compound I-139, benzyl 1-((4-(cyclopropyldifluoromethyl)phenyl)sulfonyl)spiro[indoline-3,4′-piperidine]-1′-carboxylate] | ≤ 500 | ≤ 2000 |
| CN(C)S(=O)(=O)c1ccc(S(=O)(=O)N2CC3(CCN(C(=O)OCC4CC4)CC3)n3nccc32)cc1 [Compound I-145, cyclopropylmethyl 1′-[4-(dimethylsulfamoyl)benzenesulfonyl]-1′,2′-dihydrospiro[piperidine-4,3′-pyrazolo[1,5-a]imidazole]-1-carboxylate] | ≥ 5010 | ≥ 10000 |
